Measured values: patent publication US5643784A, “Indan derivatives” (H, Lundbeck A/S, priority 1990, dated 1997)

Tests used:
[1] = molecular target: T1, 5-HT2 receptors (Rattus norvegicus, UniProt P14842); test: Inhibition of 3H-ketanserin binding to 5-HT2 receptors in rat cortex in vitro; conditions: for IC50: 3H-Ketanserin 0.5 nM, rat cortex, 37° C., 30 min, read-out: Receptor Binding, IC50 5-HT2 3H-Ket
T1 construct: cortical tissue is dissected and weighed; from tissue; host or cells: cortex of male Wistar rats, crude membranes
Protocol: Method in Hyttel, Pharmacology & Toxicology, 61, 126-129, 1987.
Male Wistar (Mol:Wist) rats (125-250 g) are sacrificed and cortical tissue is dissected and weighed. The tissue is homogenized (Ultra Turrax, 10 sec.) in 10 ml of ice-cold 50 mM tris buffer pH 7.7 (at 25° C.). The centrifuge glassware used in this step has been rinsed by sonication for 10 min. in ethanol. The homogenate is centrifuged twice at 20,000 g for 10 min. at 4° C. with rehomogenization of the pellet in 10 ml ice-cold buffer. The final pellet is homogenized in 500 vol (w/v) ice-cold buffer.
Incubation tubes kept on ice in triplicate receive 100 μl of drug solution in water (or water for total binding) and 2000 μl of tissue suspension (final tissue content corresponds to 4 mg original tissue). […] After incubation for 30 min. the samples are filtered under vacuum (0-50 mBar) through Whatman GF/F filters (25 mm). The tubes are rinsed with 5 ml ice-cold buffer which are then poured on the filters. Thereafter, the filters are washed with 2×5 ml of buffer. The filters are placed in counting vials and 4 ml of appropriate scintillation fluid (e.g. Picofluor™15) are added. After shaking for 1 h and storage 2 hrs in the dark the content of radioactivity is determined by liquid scintillation counting. Specific binding is obtained by subtracting the nonspecific binding in the presence of 1 μM mianserin.
(§1) For determination of the inhibition of binding five concentrations of drugs covering 3 decades are used.
The IC50 value is determined as the concentration at which the binding is 50% of the total binding in control samples minus the nonspecific binding in the presence of 1 μM mianserin.

[2] = molecular target: T2, dopamine D-2 receptors (Rattus norvegicus, UniProt P61169); test: Inhibition of 3H-spiperone binding to dopamine D-2 receptors in rat corpus striatum in vitro; conditions: for IC50: 3H-spiperone 0.5 nM, rat corpus striatum, 37° C., 10 min, read-out: Receptor Binding, IC50 DA D-2 3H-Spi
T2 construct: striatal tissue is dissected and weighed; from tissue; host or cells: corpus striatum of male Wistar rats, crude membranes
Protocol: INHIBITION OF ^3 H-SPIPERONE BINDING TO DOPAMINE D-2 RECEPTORS IN RAT CORPUS STRIATUM IN VITRO
By this method the inhibition by drugs of the binding of ^3 H-spiperone (0.5 nM) to dopamine D-2 receptors in membranes from rat corpus striatum is determined in vitro.
(§2) Male Wistar (Mol:Wistar) rats (125-250 g) are sacrificed and striatal tissue is dissected and weighed. The tissue is homogenized (Ultra Turrax, 10 sec.) in 10 ml of ice-cold 50 mM K-phosphate buffer pH 7.4 (at 25° C.). The homogenate is centrifuged twice at 20,000 g for 10 min. at 4° C. with rehomogenization of the pellet in 10 ml ice-cold buffer. The final pellet is homogenized in 1300 vol (w/v) ice-cold buffer.
Incubation tubes kept on ice in triplicate receive 100 μl of drug solution in water (or water for total binding) and 4000 μl of tissue suspension (final tissue content corresponds to 3.08 mg original tissue). The binding experimental is initiated by addition of 100 μl of ^3 H-spiperone (final concentration 0.5 nM) and by placing the tubes in a 37° C. water bath. After incubation for 10 min. the samples are filtered under vacuum (0-50 mBar) through Whatman GF/F filters (25 mm). The tubes are rinsed with 5 ml ice-cold buffer which are then poured on the filters. Thereafter, the filters are washed with 2×5 ml of buffer. The filters are placed in counting vials and 4 ml of appropriate scintillation fluid (e.g. Picofluor ™15) are added. After shaking for 1 h and storage 2 hrs in the dark the content of radioactivity is determined by liquid scintillation counting. Specific binding is obtained by subtracting the nonspecific binding in the presence of 10 μM of 6,7-ADTN.
as §1
^3 H-Spiperone=[phenyl-4-^3 H]-spiperone from Amersham International plc. England, specific activity 15-25 Ci/mmol.

[3] = system: α1 adrenoceptors; test: Inhibition of 3H-prazosin binding to α1 adrenoceptors in rat brain in vitro; conditions: for IC50: 3H-Prazosin 0.25 nM, rat brain, 25° C., 20 min, read-out: Receptor Binding, IC50 α1 3H-Praz
Protocol: INHIBITION OF ^3 H-PRAZOSIN BINDING TO α1 ADRENOCEPTORS IN RAT BRAIN IN VITRO
Method and results in Hyttel & Larsen, J. Neurochem, 44, 1615-1622, 1985; Skarsfeldt & Hyttel, Eur. J. Pharmacol. 125, 323-340, 1986.
as §2, with “(Mol:Wist)” for “(Mol:Wistar)”, “(125-200” for “(125-250”, “brain” for “striatal”, “[…] Tris” for “mM K-phosphate”, “7,7” for “7.4”, “400” for “1300”
Incubation tubes kept on ice in triplicate receive 100 μl of drug solution in water (or water for total binding) and 4000μl of tissue suspension (final tissue content corresponds to 10 mg original tissue). The binding experiment is initiated by addition of 100 μl of ^3 H-Prazosin (final concentration 0.25 nM) and by placing the tubes in a 25° C. water bath. After incubation for 20 min. the samples are filtered under vacuum (0-50 mBar) through Whatman GF/F filters (25 mm). The tubes are rinsed with 5 ml ice-cold buffer which then are poured on the filters. Thereafter, the filters are washed with 5 ml of buffer. The filters are placed in counting vials and 4 ml of appropriate scintillation fluid (e.g. Picofluor™15) are added. After shaking for 1 h and storage 2 hrs in the dark the content of radioactivity is determined by liquid scintillation counting. Specific binding is obtained by subtracting the nonspecific binding in the presence of 1 μM of Prazosin.
as §1
The measured cpm are plotted against drug concentration on semilogarithmic paper and the best fitting S-shaped curve is drawn. The IC50 value is determined as the concentration at which the binding is 50% of the total binding in control samples minus the nonspecific binding in the presence of 1 μM of Prazosin.
^3 H-Prazosin=[furoyl-5-^3 H]-Prazosin from New England Nuclear, specific activity approximately 20 Ci/mmol.

T1 sequence (P14842 whole entry): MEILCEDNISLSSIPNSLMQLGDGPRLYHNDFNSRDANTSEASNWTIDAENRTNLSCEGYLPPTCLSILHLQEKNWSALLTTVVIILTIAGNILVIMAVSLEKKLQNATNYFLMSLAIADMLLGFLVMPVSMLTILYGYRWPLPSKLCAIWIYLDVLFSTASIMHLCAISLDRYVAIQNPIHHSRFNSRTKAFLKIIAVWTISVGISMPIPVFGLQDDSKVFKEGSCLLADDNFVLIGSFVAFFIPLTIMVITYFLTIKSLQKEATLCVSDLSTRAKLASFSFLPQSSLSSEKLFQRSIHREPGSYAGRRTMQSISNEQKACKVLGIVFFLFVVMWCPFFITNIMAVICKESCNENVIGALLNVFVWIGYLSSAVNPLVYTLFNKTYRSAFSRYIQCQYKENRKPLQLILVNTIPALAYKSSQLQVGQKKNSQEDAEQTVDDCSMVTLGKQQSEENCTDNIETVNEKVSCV
T2 sequence (P61169 whole entry): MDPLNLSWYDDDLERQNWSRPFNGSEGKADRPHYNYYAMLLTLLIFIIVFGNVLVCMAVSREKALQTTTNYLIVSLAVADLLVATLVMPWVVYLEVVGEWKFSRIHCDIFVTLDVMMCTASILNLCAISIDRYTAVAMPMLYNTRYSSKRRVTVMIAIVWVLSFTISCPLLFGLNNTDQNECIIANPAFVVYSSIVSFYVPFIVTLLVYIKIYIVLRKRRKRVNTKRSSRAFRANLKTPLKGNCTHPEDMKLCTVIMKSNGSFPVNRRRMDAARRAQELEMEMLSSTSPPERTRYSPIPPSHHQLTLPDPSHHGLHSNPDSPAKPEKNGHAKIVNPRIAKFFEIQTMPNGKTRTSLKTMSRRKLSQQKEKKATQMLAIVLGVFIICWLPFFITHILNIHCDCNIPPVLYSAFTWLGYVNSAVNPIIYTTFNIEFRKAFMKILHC

SMILES | affinity to 5-HT2 receptors (in words) [1] | IC50 [1] [nM] | affinity to D-2 receptors (in words) [2] | IC50 [2] [nM] | affinity to α1 adrenoceptors (in words) [3] | IC50 [3] [nM]
OCCN1CCN([C@@H]2C[C@@H](c3ccc(F)cc3)c3ccc(C(F)(F)F)cc32)CC1 (racemic) [Tefludazine, reference compound] | high affinity to all three receptor types | 4.6 | high affinity to all three receptor types | 10 | high affinity to all three receptor types | 17
O=C1NCCN1CCN1CCN([C@H]2C[C@H](c3ccc(F)cc3)c3cc(C(F)(F)F)ccc32)CC1 (relative stereo) [Compound 1, Trans-1-[2-[4-[3-(4-fluorophenyl)-5-(trifluoromethyl)-2,3-dihydro-1H-inden-11-yl]-1-piperazinyl]ethyl]-2-imidazolidinone] |  | 2.9 |  | 760 |  | 320
OCCN1CCN([C@@H]2C[C@@H](c3ccc(F)cc3)c3cc(Cl)ccc32)CC1 (relative stereo) [Compound 3, Trans-4-[5-chloro-3-(4-fluorophenyl)-2,3-dihydro-1H-inden-1-yl)-1-piperazine-ethanol] |  | 25 |  | 2200 |  | 230
OCCN1CCN([C@@H]2C[C@@H](c3ccc(F)cc3)c3cc(C(F)(F)F)ccc32)CC1 (relative stereo) [Compound 5, Trans-4-[3-(4-fluorophenyl)-5-(trifluoromethyl)-2,3-dihydro-1H-inden-1-yl]-1-piperazineethanol] |  | 8.9 |  | 1300 |  | 380
Cc1cc([C@@H]2C[C@@H](N3CCN(CCO)CC3)c3ccc(Cl)cc32)cs1 (relative stereo) [Compound 6, Trans-4-[5-chloro-3-(2-methyl-4-thienyl)-2,3-dihydro-1H-inden-1-yl]-1-piperazineethanol] |  | 56 |  | 2600 |  | 1000
Cc1cc([C@@H]2C[C@@H](N3CCN(CCN4CCNC4=O)CC3)c3ccc(Cl)cc32)cs1 (relative stereo) [Compound 7, Trans-1-[2-[4-[5-chloro-3-(2-methyl-4-thienyl)-2,3-dihydro-1H-inden-1-yl]piperazine-1-yl]ethyl]-2-imidazolidinone] |  | 7.9 |  | 2800 |  | 240
Cc1ccc2c(c1)[C@@H](c1ccc(F)cc1)C[C@@H]2N1CCN(CCO)CC1 (relative stereo) [Compound 8, Trans-4-[3-(4-fluorophenyl)-5-methyl-2,3-dihydro-1H-inden-1-yl]-1-piperazine ethanol] |  | 12 |  | 1000 |  | 270
Cc1ccc2c(c1)[C@H](c1ccc(F)cc1)C[C@H]2N1CCN(CCN2CCNC2=O)CC1 (relative stereo) [Compound 9, Trans-1-[2-[4-[3-(4-fluorophenyl)-5-methyl-2,3-dihydro-1H-inden-1-yl]piperazine-1-yl]ethyl]-2-imidazolidinone] |  | 3.7 |  | 370 |  | 220
Fc1ccc([C@@H]2C[C@@H](N3CCNCC3)c3ccc(Cl)cc32)cc1 (relative stereo) [Compound 10, Trans-1-[5-chloro-3-(4-fluorophenyl)-2,3-dihydro-1H-inden-1-yl]piperazine] |  | 11 |  | 2500 |  | 840
CC(C)N1CCN(CCN2CCN([C@@H]3C[C@@H](c4ccc(F)cc4)c4cc(Cl)ccc43)CC2)C1=O (relative stereo) [Compound 11, Trans-1-[2-[4-[5-chloro-3-(4-fluorophenyl)-2,3-dihydro-1H-inden-1-yl]piperazin-1-yl]-ethyl]-3-isopropyl-2-imidazolidinone] |  | 3.9 |  | 280 |  | 260
CC(C)N1CCN(CCN2CCN([C@@H]3C[C@@H](c4ccc(F)cc4)c4cc(C(F)(F)F)ccc43)CC2)C1=O (relative stereo) [Compound 13, Trans-1-[2-[4-[3-(4-fluorophenyl)-5-(trifluoromethyl)-2,3-dihydro-1H-inden-1-yl]piperazin-1-yl]ethyl]-3-isopropyl-2-imidazolidinone] |  | 3.7 |  | 510 |  | 350
O=C1N(CCN2CCN([C@@H]3C[C@@H](c4ccc(F)cc4)c4cc(Cl)ccc43)CC2)CCN1c1ccccc1 (relative stereo) [Compound 17, Trans-1-[2-[4-[5-chloro-3-(4-fluorophenyl)-2,3-dihydro-1H-inden-1-yl]piperazin-1-yl]ethyl]-3-phenyl-2-imidazolidinone] |  | 44 |  | 300 |  | 310
CN1CCN(CCN2CCN([C@@H]3C[C@@H](c4ccc(F)cc4)c4cc(Cl)ccc43)CC2)C1=O (relative stereo) [Compound 18, Trans-1-[2-[4-[5-chloro-3-(4-fluorophenyl)-2,3-dihydro-1H-inden-1-yl]piperazin-1-yl]ethyl]-3-methyl-2-imidazolidinone] |  | 2.8 |  | 190 |  | 600
O=C1NCCN1CCN1CCN([C@@H]2C[C@@H](c3ccc(F)cc3)c3ccc(C(F)(F)F)cc32)CC1 (relative stereo) [Compound 39, reference compound] |  |  |  | 21 |  | 8.3
O=C1NCCN1CCN1CCN([C@@H]2C[C@@H](c3ccc(F)cc3)c3ccc(Cl)cc32)CC1 (relative stereo) [Compound 41, reference compound] |  |  |  | 17 |  | 3.1
Fc1ccc([C@H]2C[C@H](N3CCNCC3)c3ccc(Cl)cc32)cc1 (single isomer, unassigned) [(+)-10] |  | 3300 |  | 28000 |  | 
O=C1NCCCN1CCN1CCN([C@@H]2C[C@@H](c3ccc(F)cc3)c3cc(F)ccc32)CC1 (single isomer, unassigned) [(-)-33, (-)-Trans-1-[2-[4-[5-fluoro-3-(4-fluorophenyl)-2,3-dihydro-1H-inden-1-yl]piperazin-1-yl]ethyl]-tetrahydro-2(1H)-pyrimidinone] |  | 57 |  | 4600 |  | 
